Columns and labels:
[1] = test system: E. coli SR481 cells transformed with pMON45364 (Ei.EPSPS:glypR); assay: growth rates of transgenic E. coli on glyphosate containing media; type: cell-based; details: growth (O.D.595) in minimal M9 media with 0.0, 0.5, 1.5 or 5.0 mM glyphosate; cells expressing EPSPS of tolerant biotype (pMON45364) versus sensitive biotype (pMON45365); Figure 3
Description: The EPSP synthase mature protein-coding regions isolated from the glyphosate tolerant and glyphosate sensitive E. indica biotypes, can be directly compared for their ability to confer tolerance to glyphosate in transgenic hosts. […] This was inserted by ligation to facilitate expression and cloning at the ATG start codon of an open reading frame.
These sequences are employed in RT-PCR reactions to generate expression cassettes suitable for cloning into pMON45337 cut with the restriction enzymes Nde1 and EcoR1. RT-PCR reactions are performed with total RNAs extracted from frozen crown samples using the RNeasy Plant Mini Kit (cat.# 74904, Qiagen Inc., Valencia, CA) per manufacturer's instructions. Oligo·dT-primed first-strand cDNAs are prepared from 5 µg samples of total RNA using the Superscript Pre-Amplification System (cat.# 18089-011, Life Technologies, Rockville, MD) per manufacturer's instructions. Two µl of first-strand cDNA are then used to generate E. indica EPSP synthase expression cassettes via polymerase chain reaction. The oligonucleotides are added in 50 µl RT-PCR reactions at a final concentration of 0.4 µM. […]

[2] = target: EPSPS activity in extracts from the glyphosate tolerant E. indica biotype (Eleusine indica, UniProt Q95AK1); details: read-out: I50 (glyphosate); tolerant biotype plant extract; 0.5 mM PEP, 1 mM shikimate-3-phosphate, 25°C; Figure 4
Sequence of EPSPS activity in extracts from the glyphosate tolerant E. indica biotype (Q95AK1 entry or part of it): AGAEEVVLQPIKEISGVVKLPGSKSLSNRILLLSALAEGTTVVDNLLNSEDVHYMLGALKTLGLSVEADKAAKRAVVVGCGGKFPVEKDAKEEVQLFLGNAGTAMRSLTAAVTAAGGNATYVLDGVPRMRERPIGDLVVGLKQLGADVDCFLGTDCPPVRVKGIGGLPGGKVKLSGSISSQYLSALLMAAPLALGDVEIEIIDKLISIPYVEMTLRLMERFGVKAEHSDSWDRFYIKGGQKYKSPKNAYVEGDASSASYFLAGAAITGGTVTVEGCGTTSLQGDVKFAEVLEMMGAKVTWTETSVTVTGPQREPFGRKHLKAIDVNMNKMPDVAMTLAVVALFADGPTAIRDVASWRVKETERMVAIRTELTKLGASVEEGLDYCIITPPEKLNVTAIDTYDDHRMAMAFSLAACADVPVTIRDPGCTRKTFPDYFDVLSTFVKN
Description: Preparation of extracts and radiometric EPSP synthase assays are performed using methods adapted from published procedures (Padgette et al., J. Biol. Chem. 266:22364-22369 (1991). Crown regions are dissected from whole plants, pulverized under liquid nitrogen with a mortar and pestle, then stored at -80°C prior to extraction. Homogenates are prepared from 0.5 g tissue per sample in 25 ml extraction buffer (100 mM TrisCl, 10 % glycerol, 1 mM EDTA, 1 mM benzamidine, 1 mM dithiothreitol, 1 mM 4-(2-aminoethyl)-benzenesulfonyl floride HCl, 0.1 mM leupeptin, pH 7.4) at 4°C using a model PT3000 Polytron homogenizer (Brinkman Instuments Inc., Westbury, NY). Debris is removed by 0.2 µm filtration, then the resulting supernatant is concentrated and desalted using an Ultrafree-15 centrifugal filtration unit (cat.# UFV2-BGC-10, Millipore Corp., Bedford, MA). Final sample volumes are approximately 0.5 ml. Protein concentrations are determined spectrophotometrically using the Bio-Rad protein assay reagent (cat.#500-0006, Bio-Rad Laboratories, Hercules, CA). EPSPS specific activities are determined by assaying 10 µl extract at 25°C for 5- 15 min. […] Reactions are quenched with the addition of 50 µl 9:1 ethanol: 0.1 M acetic acid. […]

[3] = target: native EPSPS from E. coli (Escherichia coli, UniProt P0A6D3); details: read-out: apparent Ki for glyphosate; cited from earlier work
Sequence of native EPSPS from E. coli (P0A6D3 whole entry): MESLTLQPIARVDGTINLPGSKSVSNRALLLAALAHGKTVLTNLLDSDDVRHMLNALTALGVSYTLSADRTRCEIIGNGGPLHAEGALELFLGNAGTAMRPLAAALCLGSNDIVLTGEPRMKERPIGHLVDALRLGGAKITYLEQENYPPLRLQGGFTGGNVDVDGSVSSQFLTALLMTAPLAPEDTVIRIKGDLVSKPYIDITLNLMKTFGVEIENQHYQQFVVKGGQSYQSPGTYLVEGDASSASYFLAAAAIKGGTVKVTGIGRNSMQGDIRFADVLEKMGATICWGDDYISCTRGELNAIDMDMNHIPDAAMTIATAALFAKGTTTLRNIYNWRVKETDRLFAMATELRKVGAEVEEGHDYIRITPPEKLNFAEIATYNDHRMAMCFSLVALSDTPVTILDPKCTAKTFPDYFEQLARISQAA

[4] = target: T1, E. indica glypS EPSPS (Eleusine indica, UniProt Q95AK0); assay: enzyme kinetics, Km(PEP) and Ki (glyphosate); type: biochemical; details: apparent Km, saturating S3P
T1 sequence (Q95AK0 1-445): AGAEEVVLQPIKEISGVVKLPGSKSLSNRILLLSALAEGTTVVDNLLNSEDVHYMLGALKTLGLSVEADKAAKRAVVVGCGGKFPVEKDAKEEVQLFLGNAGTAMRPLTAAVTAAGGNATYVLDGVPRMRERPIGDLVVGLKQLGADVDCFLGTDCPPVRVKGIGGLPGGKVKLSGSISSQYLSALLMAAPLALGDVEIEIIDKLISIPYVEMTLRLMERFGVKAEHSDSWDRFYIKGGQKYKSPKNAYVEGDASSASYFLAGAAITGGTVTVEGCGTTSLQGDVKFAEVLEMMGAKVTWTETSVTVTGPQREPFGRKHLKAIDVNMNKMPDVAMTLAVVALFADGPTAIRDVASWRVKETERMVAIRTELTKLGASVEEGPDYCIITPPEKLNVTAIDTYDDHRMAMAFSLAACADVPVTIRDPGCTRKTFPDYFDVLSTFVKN
Description: Calculations, graphical representation, and statistical analysis of enzyme kinetic data are performed using GraFit version 3.0 software (Erithacus Software Ltd., Staines, U.K.).

| SMILES | increase in tolerance to glyphosate [1] | IC50 [2] [µM] | Ki [3] [µM] | KmPEP [4] [M] |
| --- | --- | --- | --- | --- |
| O=C(O)CNCP(=O)(O)O [glyphosate, N-phosphonomethylglycine] | approximately three-fold | ~16 | 0.5 |  |
| C=C(OP(=O)(O)O)C(=O)O [PEP, phosphoenolpyruvate] |  |  |  | 5 |

— EP1582583A2 (priority 2000, dated 2001)
